{
  "source": "patent US9734283B2",
  "about": "“Genomic features associated with epigenetic control regions and transgenerational inheritance of epimutations” (priority 2011, dated 2017)",
  "key": {"[1]": {"test_system": "sperm promoter epigenome (DNA methylation)", "conditions": "previous comparative MeDIP-Chip study; cited from earlier work"}, "rats": {"test_system": "rats", "conditions": "previous study; mammary tumors, prostate disease, kidney disease, testis and immune abnormalities; cited from earlier work"}, "[2]": {"test_system": "testicular spermatogenic cells", "test": "Testicular spermatogenic cell apoptosis (TUNEL assay), F1-F3 lineage after F0 gestational exposure", "format": "in vivo, mouse", "protocol": "The experimental design involved exposing gestating female inbred 129 strain and outbred CD-1 strain mice to daily intraperitoneal (IP) injections of vehicle (DMSO) (control) or vinclozolin at two doses, 100 mg/kg/day (V1) or 200 mg/kg/day (V2), between embryonic day 7-13 of gestation. In addition, a comparison was used with flutamide IP injections at a 20/mg/kg/day dose. The F1 generation males and females from different litters were bred to generate the F2 generation animals and F2 generation males and females from different litters were bred to generate the F3 generation animals, see Methods below. No sibling or cousin breedings occurred to avoid any inbreeding artifacts. Selected F1, F2 and F3 generation animals from postnatal 90 (P90) or 300 (P300) days of age were analyzed for testis, sperm and other pathologies as previously described.^11, 20, 21\nTimed pregnant inbred 129 mice were given intraperitoneal injections with vinclozolin (100 mg/kg·day, 99% pure; ChemService, West Chester, Pa.), flutamide (20 mg/kg·day, Sigma, St. Louis, Mo.) or DMSO in sesame oil (vehicle) as controls, while timed pregnant outbred CD-1 mice were given intraperitoneal injections (IP) with vinclozolin doses: 100 mg/kg·day (V1) or 200 mg/kg·day (V2) or DMSO in sesame oil as controls.^21 Mice were given injections from embryonic day (E) E7-E13, with plug date equal to day 0. Controls were injected with vehicle (DMSO) dose and were matched with vinclozolin or flutamide treatment animals within the same mouse strain at the time of injection and were analyzed together throughout all three generations. […] Male mice were collected and analyzed between P60-P90 (P90) for all generations and treatment groups. […]"}, "[3]": {"test_system": "sperm promoter epigenome (DNA methylation)", "test": "MeDIP-Chip with Affymetrix mouse promoter tiling arrays", "format": "in vivo", "conditions": "duplicate arrays, no direct comparative hybridization; none confirmed by bisulfite PCR and mass spectrometry", "excerpt": "Affymetrics' GeneChip® Mouse Promoter 1.0R Array was used, which contains 4.6 million probes tiled that interrogate nearly 28,000 mouse promoter regions. These probes are 25-mer and tiled at an average resolution of 35 bp with gaps of approximately 10 bp between probes. Each promoter region covers approximately 6 kb upstream through 2.5 kb downstream of 5′ transcription start sites. A total of 6 arrays were used, one each for C1, C2, V1 and V2, one for C1+C2 and another for their DNA inputs, InpC1+InpC2."}},
  "data": [
    {"molecule": "C=CC1(C)OC(=O)N(c2cc(Cl)cc(Cl)c2)C1=O", "note": "(racemic) [vinclozolin, (RS)-3-(3,5-dichlorophenyl)-5-methyl-5-vinyl-1,3-oxazolidine-2,4-dione]", "values": [
      {"measurement": "number of promoters in rat sperm with transgenerational alteration in DNA methylation", "setting": "[1]", "value": 48},
      {"measurement": "frequencies of adult onset disease states", "setting": "rats", "value": "20-50%"},
      {"measurement": "mean number of apoptotic germ cells within the testes", "setting": "[2]; 129 inbred strain, vinclozolin 100 mg/kg/day IP to F0 E7-E13, F1, F2, F3 at P90, F1 and F2 at P300, vs control", "value": "increased"},
      {"measurement": "testicular apoptotic germ cells", "setting": "[2]; CD-1 outbred strain, V1 100 mg/kg/day IP to F0 E7-E13, F1 and F3 P90, F1, F2, F3 P300", "value": "significant increases"},
      {"measurement": "number of differential methylation regions identified with Affymetrix tiling arrays", "setting": "[3]", "value": "seven"}
    ]}
  ]
}
